The target in the series is ATP-dependent translocase ABCB1 (Rattus norvegicus, UniProt P43245). The experiment in a line: TP_TRANSPORTER: RT-PCR in vitro, liver epithelial cells. As to conditions: epithelial cell. Format: functional, tissue-based.

The structures appear in SMILES notation.

Sequence of ATP-dependent translocase ABCB1 (P43245 whole entry): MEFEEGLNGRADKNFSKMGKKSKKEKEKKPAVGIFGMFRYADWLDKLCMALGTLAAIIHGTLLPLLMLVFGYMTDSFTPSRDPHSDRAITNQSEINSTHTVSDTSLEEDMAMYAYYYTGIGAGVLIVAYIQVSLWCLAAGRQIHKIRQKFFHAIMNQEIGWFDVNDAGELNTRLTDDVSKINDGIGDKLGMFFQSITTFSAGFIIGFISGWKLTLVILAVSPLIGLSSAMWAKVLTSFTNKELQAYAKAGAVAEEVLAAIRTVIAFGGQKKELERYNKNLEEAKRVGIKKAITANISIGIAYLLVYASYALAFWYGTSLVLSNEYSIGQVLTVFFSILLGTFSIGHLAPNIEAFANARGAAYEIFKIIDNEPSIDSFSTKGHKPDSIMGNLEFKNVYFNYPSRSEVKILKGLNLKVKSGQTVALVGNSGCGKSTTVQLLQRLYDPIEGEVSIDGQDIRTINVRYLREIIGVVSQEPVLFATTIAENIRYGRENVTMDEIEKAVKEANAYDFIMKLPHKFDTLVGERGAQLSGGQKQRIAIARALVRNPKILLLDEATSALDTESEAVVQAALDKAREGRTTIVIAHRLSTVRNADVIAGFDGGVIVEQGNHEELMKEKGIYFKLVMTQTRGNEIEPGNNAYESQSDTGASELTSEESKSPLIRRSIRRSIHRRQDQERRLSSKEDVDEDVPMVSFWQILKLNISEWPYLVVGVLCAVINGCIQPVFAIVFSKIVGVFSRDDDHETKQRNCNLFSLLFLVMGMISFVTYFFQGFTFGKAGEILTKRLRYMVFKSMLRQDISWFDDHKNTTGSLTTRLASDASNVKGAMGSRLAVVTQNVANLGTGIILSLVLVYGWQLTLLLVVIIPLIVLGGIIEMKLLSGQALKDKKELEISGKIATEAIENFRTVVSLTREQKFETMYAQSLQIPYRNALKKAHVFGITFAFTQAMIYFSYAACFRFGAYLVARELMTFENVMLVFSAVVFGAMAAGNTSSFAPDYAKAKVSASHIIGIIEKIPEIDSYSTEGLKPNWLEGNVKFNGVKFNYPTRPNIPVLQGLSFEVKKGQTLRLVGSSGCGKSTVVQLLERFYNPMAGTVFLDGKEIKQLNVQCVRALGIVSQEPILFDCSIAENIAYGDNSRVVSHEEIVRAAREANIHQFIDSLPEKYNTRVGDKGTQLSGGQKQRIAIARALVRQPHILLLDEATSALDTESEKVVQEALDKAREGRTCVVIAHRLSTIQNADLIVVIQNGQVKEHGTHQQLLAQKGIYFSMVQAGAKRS

Consider `COS(C)(=O)=O` [METHANESULFONIC ACID METHYL ESTER], for which the Activity result was “inducer [+]”.
